From paper PMC7710685 (Frontiers in Neuroscience, 2020)
Where “and” joins values, the source holds several entries; their conditions need not be identical. Identical values can stand only once. Like-named read-outs stand apart in the source and are kept apart here.

How the values were obtained:
[1] = biological target: T1, human α1β2γ2 GABAA receptors (Homo sapiens, UniProt P14867+P18507+P47870); conditions: γ2 (α1β2γ2); for Modulation at 10 μM: 10 μM co-applied with GABA EC10, percentage potentiation of GABA EC10; for Emax (%): percent of current through GABA EC10, Hill fit
T1 sequence (P18507 40-475, one chain of several): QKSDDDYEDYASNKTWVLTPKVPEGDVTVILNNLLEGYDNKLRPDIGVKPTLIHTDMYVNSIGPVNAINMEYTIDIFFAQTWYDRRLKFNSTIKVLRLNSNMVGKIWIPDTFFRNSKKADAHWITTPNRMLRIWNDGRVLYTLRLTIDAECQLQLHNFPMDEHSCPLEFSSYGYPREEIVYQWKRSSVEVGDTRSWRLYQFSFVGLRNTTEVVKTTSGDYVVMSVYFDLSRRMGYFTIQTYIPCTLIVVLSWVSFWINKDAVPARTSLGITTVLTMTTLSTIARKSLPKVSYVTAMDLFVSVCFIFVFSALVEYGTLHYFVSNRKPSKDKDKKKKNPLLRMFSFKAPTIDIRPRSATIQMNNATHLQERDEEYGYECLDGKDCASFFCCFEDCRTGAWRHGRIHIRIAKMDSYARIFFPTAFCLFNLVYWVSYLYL
Excerpt: (§1) To ensure homogenous receptor populations and subunit orientation, we used concatenated receptors expressed in X. laevis oocytes. Concatenated pentameric constructs were created using the subunits γx-β2-α1-β2-α1 (where x = 1, 2, or 3). […] Briefly, natural restriction sites BamHI, HindIII, and KpnI restriction sites in the γ1, 2, 3, β2, or α1 subunits were removed through silent mutations using site-directed mutagenesis. […] Inserted linker lengths are as follows γx-13a-β2-27a-α1-18a-β2-27a-α1.
(§2) The collection and preparation of oocytes were done as previously described ([Ahring et al., 2016]). […] Oocytes were prepared by slicing lobes into small pieces and defolliculated through collagenase A treatment. Stage V and VI oocytes were injected with around 50 nL of 0.5 ng/nL RNA for each concatenated construct or α1/β2 subunits in a 1:1 ratio and incubated for 3–4 days at 18°C in modified Barth’s solution (96 mM NaCl, 2.0 mM KCl, 1 mM MgCl2, 1.8 mM CaCl2, 5 mM HEPES, 2.5 mM sodium pyruvate, 0.5 mM theophylline, and 100 μg/mL gentamicin; pH 7.4).
(§3) This technique was performed as previously described ([Ahring et al., 2016], [2018]; [Liao et al., 2019]). Briefly, oocytes sit in a custom-built chamber and continuously perfused with a saline solution, ‘ND96’ (96 mM NaCl, 2 mM KCl, 1 mM MgCl2, 1.8 mM CaCl2, and 10 mM HEPES; pH 7.4). Glass electrode pipettes were filled with 3 M KCl, with resistances ranging from 0.4 to 2 MΩ. Oocytes were clamped to −60 mV using an Axon GeneClamp 500B amplifier (Molecular Devices). Currents were filtered at 20 Hz with a four-pole low pass Bessel filter (Axon GeneClamp 500 B) and digitized by a Digidata 1440A (Molecular Devices). Sampling was taken at 200 Hz and analyzed using pClamp 10.2 suite (Molecular Devices).
(§4) Each recording day, a fresh stock was used to prepare dilutions. The maximal concentration of DMSO in final drug ND96 solutions was <0.1%.
(§5) The drug modulation experiments were done as follows.
(§6) The final dataset was from a minimum of four experiments and a minimum of two different X. laevis donors. Raw traces were analyzed using pClamp 10.2. Episodic traces for each application were overlaid and the baseline was subtracted. Peak current amplitude was quantified by measuring maximum inward current for each response. Peak current amplitudes (I) were fitted to the Hill equation and normalized to the maximal fitted response (Imax). […] The Emax response and EC50 values were calculated by using non-linear regression to fit the data to the Hill equation in a monophasic model with three variables (top, bottom, EC50) using GraphPad Prism 8. Efficacy at infinitely low compound concentration was set to 0, and the slope was constrained to 1. Means are reported ± one SD.

[2] = biological target: T1, human α1β2γ2 GABAA receptors; experiment: cell-based; conditions: for Emax: γ2 (α1β2γ2), percent of current through GABA EC10, Hill fit; for EC50: EC50, γ2 (α1β2γ2), co-applied with GABA EC10
Excerpt: as §1, §2, §3, §4, §5, §6

[3] = biological target: recombinant α1β2γ3 GABAA receptors; design: method as in Lippa et al., 2005; conditions: ref Lippa et al., 2005, cited from earlier work
[4] = biological target: T2, human α1β2γ3 GABAA receptors (Homo sapiens, UniProt P14867+P47870+Q99928); experiment: cell-based; conditions: for EC50: EC50, γ3 (α1β2γ3), co-applied with GABA EC10
T2 sequence (Q99928 18-467): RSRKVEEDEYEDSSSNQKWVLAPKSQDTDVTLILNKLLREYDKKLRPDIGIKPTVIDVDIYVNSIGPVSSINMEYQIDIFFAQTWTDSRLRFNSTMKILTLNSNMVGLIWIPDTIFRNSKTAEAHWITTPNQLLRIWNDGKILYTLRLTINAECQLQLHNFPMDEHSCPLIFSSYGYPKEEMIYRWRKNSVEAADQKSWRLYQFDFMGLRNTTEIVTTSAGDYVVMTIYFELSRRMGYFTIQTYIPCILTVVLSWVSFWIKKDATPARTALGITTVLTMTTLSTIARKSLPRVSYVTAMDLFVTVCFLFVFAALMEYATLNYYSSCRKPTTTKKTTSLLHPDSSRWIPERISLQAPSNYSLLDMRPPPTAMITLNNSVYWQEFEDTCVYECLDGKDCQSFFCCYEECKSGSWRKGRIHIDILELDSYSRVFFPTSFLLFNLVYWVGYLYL
T2 sequence (P47870 25-512 limits assumed): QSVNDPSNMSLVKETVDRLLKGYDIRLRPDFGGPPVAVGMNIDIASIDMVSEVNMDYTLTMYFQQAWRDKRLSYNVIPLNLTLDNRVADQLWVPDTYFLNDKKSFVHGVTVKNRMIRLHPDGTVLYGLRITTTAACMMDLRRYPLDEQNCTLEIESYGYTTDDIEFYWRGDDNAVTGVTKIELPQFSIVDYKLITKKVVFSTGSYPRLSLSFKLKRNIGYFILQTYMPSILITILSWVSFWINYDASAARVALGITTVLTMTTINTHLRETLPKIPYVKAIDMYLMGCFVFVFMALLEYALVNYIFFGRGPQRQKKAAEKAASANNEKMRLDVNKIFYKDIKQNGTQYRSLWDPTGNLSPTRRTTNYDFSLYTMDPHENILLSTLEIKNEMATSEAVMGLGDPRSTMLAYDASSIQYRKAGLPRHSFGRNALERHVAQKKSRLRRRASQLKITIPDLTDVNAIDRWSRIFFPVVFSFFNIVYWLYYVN
T2 sequence (P14867 28-456): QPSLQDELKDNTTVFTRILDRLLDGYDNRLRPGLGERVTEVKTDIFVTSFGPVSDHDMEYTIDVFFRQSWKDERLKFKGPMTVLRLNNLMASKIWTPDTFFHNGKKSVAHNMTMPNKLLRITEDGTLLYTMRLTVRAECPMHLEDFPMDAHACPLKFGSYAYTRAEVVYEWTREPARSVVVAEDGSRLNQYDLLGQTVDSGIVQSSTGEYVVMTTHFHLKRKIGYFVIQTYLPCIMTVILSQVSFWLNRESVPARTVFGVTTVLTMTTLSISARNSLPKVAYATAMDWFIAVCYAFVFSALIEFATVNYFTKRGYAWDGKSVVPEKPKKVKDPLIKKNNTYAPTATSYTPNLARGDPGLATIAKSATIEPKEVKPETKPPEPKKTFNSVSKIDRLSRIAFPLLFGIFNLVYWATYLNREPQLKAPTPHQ
Excerpt: as §1, §2, §3, §4, §5, §6

[5] = biological target: T2, human α1β2γ3 GABAA receptors; conditions: for Modulation at 10 μM: 10 μM co-applied with GABA EC10, percentage potentiation of GABA EC10; for Emax (%): percent of current through GABA EC10, Hill fit; for fold greater potency at γ3 receptors compared with γ2: EC50 α1β2γ2 vs α1β2γ3
Excerpt: as §1, §2, §3, §4, §5, §6

[6] = biological target: T3, human α1β2γ1 GABAA receptors (Homo sapiens, UniProt P14867+P47870+Q8N1C3); conditions: γ1 (α1β2γ1); for Modulation at 10 μM: 10 μM co-applied with GABA EC10, percentage potentiation of GABA EC10; for Emax (%): percent of current through GABA EC10, Hill fit, 0.1 nM-10 μM; for EC50: co-applied with GABA EC10; for Log(EC50): logarithm of EC50, mean ± SD
T3 sequence (Q8N1C3 36-465): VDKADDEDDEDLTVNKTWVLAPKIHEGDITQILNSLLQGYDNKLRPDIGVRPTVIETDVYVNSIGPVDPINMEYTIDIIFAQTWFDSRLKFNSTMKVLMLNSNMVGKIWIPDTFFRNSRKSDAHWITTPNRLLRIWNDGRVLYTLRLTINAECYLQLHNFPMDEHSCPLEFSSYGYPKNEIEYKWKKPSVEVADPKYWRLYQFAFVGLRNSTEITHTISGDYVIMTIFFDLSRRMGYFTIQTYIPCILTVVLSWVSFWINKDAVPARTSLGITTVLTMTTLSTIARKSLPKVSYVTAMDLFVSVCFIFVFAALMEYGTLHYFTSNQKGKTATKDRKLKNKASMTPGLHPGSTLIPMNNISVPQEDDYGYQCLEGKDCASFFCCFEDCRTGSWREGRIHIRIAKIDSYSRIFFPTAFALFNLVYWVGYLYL
T3 sequence (P47870 25-512 limits assumed): T2 sequence (P47870 25-512 limits assumed)
T3 sequence (P14867 28-456): T2 sequence (P14867 28-456)
Excerpt: as §1, §2, §3, §4, §5, §6

[7] = tested on: γ3 GABAA receptors; conditions: 1999, cited from earlier work; for binding affinity with γ3 compared with γ2: competitive binding using Ro15-4513, ref Dämgen and Lüddens
[8] = tested on: α1β2γ3 receptors; design: method as in Davies et al., 2000; conditions: ref Davies et al., 2000; cited from earlier work
[9] = tested on: γ1-containing receptors; design: method as in Benke et al., 1996; conditions: ref Benke et al., 1996; cited from earlier work
[10] = tested on: α2βγ1 receptors; design: method as in Wafford et al., 1993; Mckernan et al., 1995; conditions: α2βγ1 in X. laevis oocytes, ref Wafford et al., 1993, Mckernan et al., 1995, cited from earlier work
[11] = tested on: α1βγ1 receptors; design: method as in Khom et al., 2006; conditions: α1βγ1 in X. laevis oocytes, ref Khom et al., 2006, cited from earlier work
[12] = biological target: α1βγ1 receptors; conditions: HEK293 cells expressing α1βγ1, cited from earlier work
[13] = biological target: T3, human α1β2γ1 GABAA receptors; conditions: γ1; GABA concentration-response
Excerpt: (§7) To ensure homogenous receptor populations and subunit orientation, we used concatenated receptors expressed in X. laevis oocytes. Concatenated pentameric constructs were created using the subunits γx-β2-α1-β2-α1 (where x = 1, 2, or 3).
(§8) The collection and preparation of oocytes were done as previously described ([Ahring et al., 2016]). Briefly, ovarian lobes were removed from anesthetized adult X. laevis following protocol approval by the Animal Ethics Committee of The University of Sydney (AEC No. 2016/970) in accordance with the National Health and Medical Research Council of Australia code for the care and use of animals. […]
(§9) This technique was performed as previously described ([Ahring et al., 2016], [2018]; [Liao et al., 2019]). […] Sampling was taken at 200 Hz and analyzed using pClamp 10.2 suite (Molecular Devices).
(§10) Applications lasted for 30 s and were followed by 2–5 min of washout. EC50 and EC10 were calculated from this curve.
(§11) The final dataset was from a minimum of four experiments and a minimum of two different X. laevis donors. Raw traces were analyzed using pClamp 10.2. […] Peak current amplitude was quantified by measuring maximum inward current for each response. […] The Emax response and EC50 values were calculated by using non-linear regression to fit the data to the Hill equation in a monophasic model with three variables (top, bottom, EC50) using GraphPad Prism 8. […]

[14] = biological target: T1, human α1β2γ2 GABAA receptors; experiment: GABA concentration-response, concatenated α1β2γ2 receptors in oocytes; assay type: cell-based; design: expressed in transfected cells; host or cells: Xenopus laevis oocytes injected with cRNA of the concatenated construct; conditions: γ2
Excerpt: as §7, §8, §9, §10, §11

[15] = tested on: α2β2γ3 receptor; experiment: Literature: efficacy and potency of zaleplon at α2β2γ3 receptor; assay type: cell-based; conditions: literature α2β2γ3 EC50 vs this paper's α1β2γ3 EC50
[16] = biological target: α2β2γ3 receptor; conditions: earlier study, no reference given; cited from earlier work
[17] = biological target: T4, human binary α1β2 GABAA receptors (Homo sapiens, UniProt P14867+P47870); conditions: 10 μM co-applied with GABA EC10, percentage potentiation of GABA EC10
T4 sequence (P14867 28-456): T2 sequence (P14867 28-456)
T4 sequence (P47870 25-512 limits assumed): T2 sequence (P47870 25-512 limits assumed)
Description: as §2
This technique was performed as previously described ([Ahring et al., 2016], [2018]; [Liao et al., 2019]). Briefly, oocytes sit in a custom-built chamber and continuously perfused with a saline solution, ‘ND96’ (96 mM NaCl, 2 mM KCl, 1 mM MgCl2, 1.8 mM CaCl2, and 10 mM HEPES; pH 7.4). […] Sampling was taken at 200 Hz and analyzed using pClamp 10.2 suite (Molecular Devices). […]
as §11

| Structure (SMILES) | Modulation at 10 μM [1] [%] | Emax [2] [%] | Emax [4] [%] | Modulation at 10 μM ([5]; γ3 (α1β2γ3)) [%] | Modulation at 10 μM [6] [%] | Emax (%) [6] | EC50 [2] | EC50 [4] | EC50 [6] | Log(EC50) [6] | further results |
| --- | --- | --- | --- | --- | --- | --- | --- | --- | --- | --- | --- |
| CN1C(=O)CN=C(c2ccccc2)c2cc(Cl)ccc21 [Diazepam, diazepam] | 272 ± 46 | 284 ± 23 | 168 ± 24 | 156 ± 35 | 43 ± 6 | No fit |  |  |  |  | EC50 ([3]; recombinant α1β2γ3): 1950 nM; Emax α1β2γ2 vs. α1β2γ3 [3]: no reduction in Emax; Modulation at 10 μM ([6]; listed as diazepam): 40% |
| CN1CCN(C(=O)OC2c3nccnc3C(=O)N2c2ccc(Cl)cn2)CC1 (stereo not drawn) [zopiclone] |  |  |  |  |  |  |  |  |  |  | binding affinity with γ3 compared with γ2 [7]: marginal reduction in binding affinity; efficacy and potency at α1β2γ3 compared with α1β2γ2 [8]: comparable efficacy and potency |
| CC(=O)N(C)c1cccc(-c2ccnc3c(C(=O)c4cccs4)cnn23)c1 [Indiplon, indiplon] | 238 ± 31 | 231 ± 18 | 263 ± 18 | 249 ± 14 | 22 ± 7 | No fit | 10 nM and 13.1 nM | 45 nM and 47.8 nM | No fit | No fit | fold greater potency for γ2 vs. γ3 (fold reduction in potency when γ3 replaces γ2) ([5]; EC50 α1β2γ3 vs α1β2γ2): ~4 fold |
| CCCN(CCC)C(=O)Cc1c(-c2ccc(Cl)cc2)nc2ccc(Cl)cn12 [Alpidem, alpidem] | 542 ± 176 |  |  | 126 ± 16 | 40 | No fit | 500 nM and 502 nM |  | No fit | No fit | Emax (%) [1]: 512 ± 80%; Emax (%) ([1]; listed as alpidem): 475–550%; EC50 ([5]; γ3 (α1β2γ3), co-applied with GABA EC10): No fit; Log(EC50) ([5]; γ3 (α1β2γ3), logarithm of EC50, mean ± SD): No fit; Emax (%) ([5]; γ3 (α1β2γ3)): No fit |
| Cc1ccc(-c2nc3ccc(C)cn3c2CC(=O)N(C)C)cc1 [Zolpidem, zolpidem] | 484 ± 124 | 475 to 550 |  | 101 ± 37 | 15 ± 6 | No fit |  |  |  |  | binding [9]: no binding; binding to the classical γ3 receptor benzodiazepine site ([7]; competition with flunitrazepam or Ro-154513, ref Herb et al., 1992, Lüddens et al., 1994, Tögel et al., Hadingham et al., 1995, Sieghart, Dämgen and Lüddens): no binding; Emax (%) [1]: 487 ± 66%; maximum efficacy [10]: ≤ 20%; maximum efficacy ([10]; listed as zolpidem): below 20%; maximum efficacy [11]: ≤ 20%; maximum efficacy ([11]; listed as zolpidem): below 20%; Emax (%) ([5]; γ3 (α1β2γ3)): No fit; Modulation at 10 μM ([6]; listed as zolpidem): 15%; EC50 ([12]; ref Esmaeili et al., 2009): ~200 nM; potentiation ([12]; ref Puia et al., 1991): 50–75% |
| CN1CCN(C(=O)O[C@H]2c3nccnc3C(=O)N2c2ccc(Cl)cn2)CC1 [Eszopiclone, eszopiclone] | 349 ± 70 | 356 ± 37 | 207 ± 20 | 199 ± 26 | 18 ± 19 | No fit | 301 nM | 554 nM | No fit | No fit | fold reduction in Emax when γ3 replaced γ2 ([5]; Emax α1β2γ2 vs α1β2γ3): 1.5 fold; Modulation at 10 μM ([6]; listed as eszopiclone): 20% |
| NCCCC(=O)O [GABA, γ-Aminobutyric-acid] |  |  |  |  |  |  |  |  |  |  | Hill slope [13]: 1.22 ± 0.32; Hill slope [14]: 1.19 ± 0.55 |
| CCN(C(C)=O)c1cccc(-c2ccnc3c(C#N)cnn23)c1 [Zaleplon, zaleplon] | 305 ± 59 | 307 ± 34 | 277 ± 26 | 262 ± 53 | 126 ± 3 | No fit | 203 nM | 56 nM | No fit | No fit | fold less potency at α2β2γ3 than seen on α1β2γ3 [15]: 10 fold; EC50 [16]: ~500 nM; Modulation at 10 μM, (I-Ic)/Ic [17]: 25%; binding affinity with γ3 compared with γ2 [7]: eightfold higher affinity; fold greater potency at γ3 receptors compared with γ2 [5]: ~4 fold; fold greater potency at γ3 receptors compared with γ2 ([5]; listed as zaleplon): four-fold increase in potency; Modulation at 10 μM ([6]; listed as zaleplon): 125% |
